# Test results reported in paper PMC9114338 (Scientific Reports, 2022).
# Read-outs that look alike come from different tables or passages of the source.
# Tests used:
# [1] = MALDI imaging mass spectrometry of dermal tissues adjacent to the implant; assay type: in vivo, C57BL/6 J mice
# Protocol: The used implants, the surrounding capsule, and the encasing dermal tissue were removed as a block in accordance with ISO 10993-6 guidelines, processed and stored, as described elsewhere. Briefly, the capsule was cut longitudinally and rolled open, taking care not to disrupt the architecture of the tissue or to damage the used implant. A portion of the tissue specimen was placed into 4% paraformaldehyde solution (phosphate-buffered at pH 7.2), and stored at 4 °C, for histopathology and two other portions were flash-frozen in liquid nitrogen for drug concentration analysis as well as for drug spatial distribution analysis by MALDI-IMS (vide infra).
# Frozen mouse tissue specimens were shipped to Vanderbilt University on dry ice and stored at − 80 °C prior to use. Tissues were removed from the − 80 °C freezer and placed in a − 20 °C cryostat (CM 1900, Leica Biosystems, Buffalo Grove, IL) and sectioned. Tissue samples that had been prepared via removal of the used implant were affixed to the cryostat chuck with optimal cutting temperature (OCT) polymer and were cut on the cryostat into 12 µm thick sections for imaging mass spectrometry and H&E staining.
# Tissue samples that still contained the implant in place were embedded in OCT prior to sectioning. In order to minimize the artifactual signal from the TAF powder after sectioning (the act of the cryostat blade cutting through an intact implant distributed residual TAF powder that still remained in the used implant onto the surrounding tissue section), house vacuum was used to remove visible TAF powder, followed by lightly running nitrogen gas over the plate to remove any additional loose powder from the slide.
# The tissue sections were thaw-mounted onto indium-tin oxide coated glass slides for imaging (Delta Technologies, Ltd, Loveland, CO). The tissue sections were left to dry for at least 15 min in a desktop vacuum desiccator prior to matrix application. […] For 9AA, four passes were applied at 85 °C in a crisscross pattern, with a 700 mm min^-1 stage velocity, 2 mm track spacing, and 0.15 mL min^-1 flow rate. For DHB the same method was used, except eight passes were applied and the stage velocity was 1300 mm min^-1.
# Flash-frozen dermal tissue samples collected adjacent to the TAF implants and sectioned were analyzed with a linear ion trap mass spectrometer equipped with a MALDI source and a nitrogen laser (LTQ XL, Thermo Scientific, Waltham, MA). The structures of compounds of interest are shown in Scheme 1. Targeted MS/MS methods were optimized for each compound using authentic samples as standards, with the final parameters shown in Appendix A under Supplementary Information. Pseudo-selected reaction monitoring mode was used for imaging by isolating precursor ions with a 1 Da window, fragmenting them, and acquiring full product ion mass spectra at each pixel. TFV, TFV-MP, and TFV-DP were analyzed in negative ion mode, while TAF, Metabolite X, and Metabolite Y were analyzed in positive ion mode. In most cases, after imaging, the matrix was removed and the tissue section that had been imaged was H&E stained for better image registration with tissue morphology. Standard images were acquired at either 50 or 100 µm spatial resolution. Reconstructed ion images were generated in ImageQuest software (Thermo Scientific, Waltham, MA) by plotting the intensity of the diagnostic fragment ion or ions as a function of location across the tissue surface.
# [2] = Compartmental PK model, IV and SQ co-modeling; assay type: in vivo, C57BL/6 J mice; conditions: mouse
# Text: The results of the simultaneous model (co-model) are summarized in Table 2, and the parameters were used in subsequent simulation exercises (vide infra).
# The change in amount over time within each compartment was related to the difference in the input into the compartment (e.g., the Dose × F × Ka term into compartment C1) and the output from the compartment (e.g., the Concentration × Kout term for compartment Ccell). Two compartments –plus a dosing compartment– best described TFV plasma PKs.
# A third compartment was used to model the PKs of PBMC TFV-DP concentrations. Intracellular PKs of TFV-DP were linked to the plasma TFV concentration via saturable uptake (Vmax and Km) with maximum velocity of uptake and first order elimination kinetics, Kout. […] C1 is the central compartment, representing the TFV plasma concentration in the body. The second compartment C2 represents the peripheral tissues, and the cellular compartment Ccell represents the concentrations of TFV-DP in PBMCs. Parameters CLp and Vp describe clearance and volume of the peripheral compartment (C2) and Ka and CL are the rates of TFV uptake and clearance into/out of the central compartment (C1), respectively. […] The physiological PBMC volume was assumed to be 7.55 × 10^–7 L/10^6 cells, to remain consistent with Duwal et al.[44] for the model analysis, while all other parameters were estimated in the model. The ordinary differential equations (Eqs. 1–3) used in the final model are presented below:1 d/dtC1t=F·Ka·Dt/V-C1t·CL/V-CLp/V·C1t+CLp/Vp·C2t 2 d/dtC2t=[…] 3 d/dtCcellt=Vmax·C1t/Km-Ccellt·Kout
# Compartmental analyses were performed in Phoenix software (version 8.3, Certara, Princeton, NJ) using a published, simple, structural PK model describing the TFV kinetics. IV and SQ data were modeled simultaneously. Due to the destructive nature of the blood sampling, data were modeled using a naïve-pooled algorithm, without inter-animal variability. The resulting systemic parameters, along with the implant in vivo release rates on a per animal basis, were used to co-model (predict) concentration data in mice following during implant dosing.
smiles,measurement,setting,value
"C[C@H](Cn1cnc2c(N)ncnc21)OCP(=O)(O)O [TFV, tenofovir]",Detection by MALDI-IMS in dermal tissue samples during implant TAF delivery,[1]; all medicated specimens,detected
same,Spatial distribution in dermal tissue sections (MALDI-IMS),"[1]; high-releasing (0.58 mg d^-1) implants, D3–D28",distributed homogeneously throughout the samples
same,MALDI-IMS signal and localization with implant in situ,"[1]; low-releasing (0.23 mg d^-1) implants, Day 14, 100 µm resolution",most abundant signals
same,clearance,"[2]; C57BL/6 J, plasma, other: intravenous and subcutaneous injection, co-modelled, 0.5 mg, IV and SQ co-modeling, read-out: CL, total body clearance (converted)",4.48 mL/min
same,half-life,"[2]; C57BL/6 J, plasma, other: intravenous and subcutaneous injection, co-modelled, 0.5 mg, IV and SQ co-modeling, read-out: Elimination half-life t1/2, plasma TFV (converted)",53 h
same,Vd,"[2]; C57BL/6 J, plasma, other: intravenous and subcutaneous injection, co-modelled, 0.5 mg, IV and SQ co-modeling, read-out: V, volume of distribution of the central compartment",4.59 L
same,half-life,"[2]; C57BL/6 J, plasma, other: intravenous and subcutaneous injection, co-modelled, 0.5 mg, IV and SQ co-modeling, read-out: t1/2, elimination half-life, plasma TFV (converted)",52.8 h
same,Vmax/Km as share of the non-saturable clearance,[2]; in vivo,2%
